In PMC11647725, “Discovery of 4-(5-Membered)Heteroarylether-6-methylpicolinamide Negative Allosteric Modulators of Metabotropic Glutamate Receptor Subtype 5” (ACS Medicinal Chemistry Letters, 2024):

Key:
[1] = Binding in plasma from human (equilibrium dialysis); type: in vitro ADME; conditions: human, plasma, read-out: Human fu,plasma
Experimental: Binding in plasma from rat and human.
Determination of compounds’ fraction unbound (f u) in plasma from rat and human was conducted in vitro via equilibrium dialysis using HTDialysis membrane plates. Dialysis membranes (four paired strips per HTD assay) were hydrated as described by the manufacturer and inserted into the HTD plate, which was assembled and prepared for sample addition by the dispensing of blank buffer (DPBS, 100 µL/well) into the ‘top half’ of each membrane-split well. Each compound was diluted into plasma from each species (5 µM final concentration), which was aliquoted in triplicate to the ‘bottom half’ of the prepared HTD plate wells. The HTD plate was sealed and incubated for 6 hours at 37 °C. Following incubation, each well (both top and bottom halves) were transferred (20 µL) to the corresponding wells of a 96-shallow-well (V-bottom) plate. The daughter plates were then matrix-matched (buffer side wells received equal volume of plasma, and plasma side wells received equal volume of buffer), and extraction solution (120 µL; acetonitrile containing 50 nM carbamazepine as IS) was added to all wells of both daughter plates to precipitate protein and extract test article. The plates were then sealed and centrifuged (3500 rcf) for 10 minutes at ambient temperature. Supernatant (60 µL) from each well of the daughter plates was then transferred to the corresponding wells of new daughter plates (96-shallow-well, V bottom) containing water (Milli-Q, 60 µL/well), and the plates were sealed in preparation for LC-MS/MS analysis (see below). fu was calculated as (analyte to IS MS peak area ratio from Trans-buffer side) / (analyte to IS MS peak area ratio from Cis-plasma side). Mean values for each species were calculated from 3 replicates. […]
Mean values for each species were calculated from 3 replicates. […]
After 5 minutes (pre-incubation), reactions were initiated by addition of nicotinamide adenine dinucleotide phosphate (NADPH, 1 mM final concentration). At selected time intervals (0, 3, 7, 15, 25, and 45 minutes) post-addition of NADPH, aliquots (50 µL) were taken and placed into a 96-shallow-well plate containing ice cold acetonitrile (150 µL) with carbamazepine (IS, 50 nM). The plates were then centrifuged (3000 rcf at 4 °C) for 10 minutes. The supernatants were transferred to a new 96-shallow-well daughter plate and diluted (1:1 v/v) with water (Milli-Q filtered). The plates were then sealed in preparation for LC-MS/MS analysis (see below).

[2] = target: Serotonin (5-Hydroxytryptamine) 5-HT1A (Homo sapiens, UniProt P08908); assay: Lead Profiling Screen, Eurofins Panlabs; type: binding; conditions: Serotonin 5-HT1A, hum, read-out: % inh at 10 μM
Imidazoline I2, Central = assay: Lead Profiling Screen, Eurofins Panlabs; type: binding; conditions: rat
From the text: (§1) Nonetheless, as a non-aryl/heterobiaryl acetylene mGlu5 NAM with an encouraging in vivo rodent PK profile, we wished to further assess VU6043653 as a novel chemotype. Therefore, we compared metabolites in multiple species to better understand species differences in clearance and metabolism. […] Consistent with the high plasma clearance observed in dogs, high turnover was observed more so in dog hepatocytes than any other species tested (see the Supporting Information for additional details and results). To further evaluate our novel chemotype, the off-target and safety/toxicity profiles for this compound were further investigated.
(§2) Table S2. Lead Profiling Screen – Eurofins Panlabs for VU6043653.
Assay Name Species % inh at 10 μM […]
Imidazoline I2, Central rat -1

CYP 2C9 = target: T1, CYP 2C9 (Homo sapiens, UniProt P11712); assay: P450 inhibition in pooled human liver microsomes; type: in vitro ADME; conditions: pooled HLM, NADPH, CYP-specific probe substrates; listed as VU6043653
T1 construct: from tissue; host or cells: pooled human liver microsomes (per the earlier reading)

Bradykinin B1 = Bradykinin B1 (Homo sapiens, UniProt P46663); assay: Lead Profiling Screen, Eurofins Panlabs; type: binding; conditions: Bradykinin B1, hum, read-out: % inh at 10 μM
From the text: as §1, §2

Endothelin ETB = Endothelin ETB (Homo sapiens, UniProt P24530); assay: Lead Profiling Screen, Eurofins Panlabs; type: binding; conditions: hum, read-out: % inh at 10 μM
From the text: as §1, §2

Dopamine D4.4 = Dopamine D4.4 (Homo sapiens, UniProt P21917); assay: Lead Profiling Screen, Eurofins Panlabs; type: binding; conditions: Dopamine D4.4, hum, read-out: % inh at 10 μM
From the text: as §1, §2

Adrenergic α1D = Adrenergic α1D (Homo sapiens, UniProt P25100); assay: Lead Profiling Screen, Eurofins Panlabs; type: binding; conditions: hum, read-out: % inh at 10 μM
From the text: as §1, §2

Adrenergic α2A = Adrenergic α2A (Homo sapiens, UniProt P08913); assay: Lead Profiling Screen, Eurofins Panlabs; type: binding; conditions: hum, read-out: % inh at 10 μM
From the text: as §1, §2

Dopamine D3 = Dopamine D3 (Homo sapiens, UniProt P35462); assay: Lead Profiling Screen, Eurofins Panlabs; type: binding; conditions: Dopamine D3, hum, read-out: % inh at 10 μM
From the text: as §1, §2

GABAB1A = GABAB1A (Homo sapiens, UniProt Q9UBS5); assay: Lead Profiling Screen, Eurofins Panlabs; type: binding; conditions: hum, read-out: % inh at 10 μM
From the text: as §1, §2

Bradykinin B2 = Bradykinin B2 (Homo sapiens, UniProt P30411); assay: Lead Profiling Screen, Eurofins Panlabs; type: binding; conditions: Bradykinin B2, hum, read-out: % inh at 10 μM
From the text: as §1, §2

Histamine H2 = Histamine H2 (Homo sapiens, UniProt P25021); assay: Lead Profiling Screen, Eurofins Panlabs; type: binding; conditions: Histamine H2, hum, read-out: % inh at 10 μM
From the text: as §1, §2

Histamine H1 = Histamine H1 (Homo sapiens, UniProt P35367); assay: Lead Profiling Screen, Eurofins Panlabs; type: binding; conditions: Histamine H1, hum, read-out: % inh at 10 μM
From the text: as §1, §2

Dopamine D2S = Dopamine D2S (Homo sapiens, UniProt P14416); assay: Lead Profiling Screen, Eurofins Panlabs; type: binding; conditions: hum, read-out: % inh at 10 μM
From the text: as §1, §2

Dopamine D1 = Dopamine D1 (Homo sapiens, UniProt P21728); assay: Lead Profiling Screen, Eurofins Panlabs; type: binding; conditions: Dopamine D1, hum, read-out: % inh at 10 μM
From the text: as §1, §2

Adrenergic α1A = Adrenergic α1A (Homo sapiens, UniProt P35348); assay: Lead Profiling Screen, Eurofins Panlabs; type: binding; conditions: hum, read-out: % inh at 10 μM
From the text: as §1, §2

Adrenergic β1 = Adrenergic β1 (Homo sapiens, UniProt P08588); assay: Lead Profiling Screen, Eurofins Panlabs; type: binding; conditions: Adrenergic β1, hum, read-out: % inh at 10 μM
From the text: as §1, §2

Histamine H3 = Histamine H3 (Homo sapiens, UniProt Q9Y5N1); assay: Lead Profiling Screen, Eurofins Panlabs; type: binding; conditions: Histamine H3, hum, read-out: % inh at 10 μM
From the text: as §1, §2

Glucocorticoid = Glucocorticoid (Homo sapiens, UniProt P04150); assay: Lead Profiling Screen, Eurofins Panlabs; type: binding; conditions: hum, read-out: % inh at 10 μM
From the text: as §1, §2

Tachykinin NK1 = Tachykinin NK1 (Homo sapiens, UniProt P25103); assay: Lead Profiling Screen, Eurofins Panlabs; type: binding; conditions: Tachykinin NK1, hum, read-out: % inh at 10 μM
Opiate μ (OP3, MOP) = Opiate μ (OP3, MOP) (Homo sapiens, UniProt P35372); assay: Lead Profiling Screen, Eurofins Panlabs; type: binding; conditions: hum, read-out: % inh at 10 μM

T1 sequence (P11712 whole entry): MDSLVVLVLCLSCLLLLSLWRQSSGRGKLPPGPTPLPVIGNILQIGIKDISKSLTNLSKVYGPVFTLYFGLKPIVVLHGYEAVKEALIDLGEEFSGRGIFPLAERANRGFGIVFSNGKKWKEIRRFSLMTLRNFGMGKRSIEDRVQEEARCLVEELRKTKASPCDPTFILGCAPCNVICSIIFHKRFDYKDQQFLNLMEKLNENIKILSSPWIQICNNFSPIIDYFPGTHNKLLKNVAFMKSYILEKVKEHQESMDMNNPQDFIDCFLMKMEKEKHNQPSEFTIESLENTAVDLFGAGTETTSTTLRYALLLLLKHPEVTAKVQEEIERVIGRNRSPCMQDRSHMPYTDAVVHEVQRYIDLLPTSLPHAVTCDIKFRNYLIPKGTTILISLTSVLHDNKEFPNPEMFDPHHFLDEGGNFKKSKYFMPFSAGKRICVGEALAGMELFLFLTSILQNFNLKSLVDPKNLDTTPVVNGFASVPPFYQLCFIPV
Sequence of Histamine H1 (P35367 whole entry): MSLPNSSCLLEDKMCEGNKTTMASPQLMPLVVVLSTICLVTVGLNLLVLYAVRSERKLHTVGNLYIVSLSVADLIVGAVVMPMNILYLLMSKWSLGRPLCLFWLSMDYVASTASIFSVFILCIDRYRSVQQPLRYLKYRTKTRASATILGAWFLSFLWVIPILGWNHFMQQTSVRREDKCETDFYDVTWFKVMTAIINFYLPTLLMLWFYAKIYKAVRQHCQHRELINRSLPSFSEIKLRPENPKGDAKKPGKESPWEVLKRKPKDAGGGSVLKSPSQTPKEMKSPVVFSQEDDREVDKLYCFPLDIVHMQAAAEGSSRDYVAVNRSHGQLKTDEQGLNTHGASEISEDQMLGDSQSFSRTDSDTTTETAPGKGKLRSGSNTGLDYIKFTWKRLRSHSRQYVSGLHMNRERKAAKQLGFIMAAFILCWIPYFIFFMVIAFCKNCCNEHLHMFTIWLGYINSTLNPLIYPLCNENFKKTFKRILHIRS
Sequence of Endothelin ETB (P24530 27-442): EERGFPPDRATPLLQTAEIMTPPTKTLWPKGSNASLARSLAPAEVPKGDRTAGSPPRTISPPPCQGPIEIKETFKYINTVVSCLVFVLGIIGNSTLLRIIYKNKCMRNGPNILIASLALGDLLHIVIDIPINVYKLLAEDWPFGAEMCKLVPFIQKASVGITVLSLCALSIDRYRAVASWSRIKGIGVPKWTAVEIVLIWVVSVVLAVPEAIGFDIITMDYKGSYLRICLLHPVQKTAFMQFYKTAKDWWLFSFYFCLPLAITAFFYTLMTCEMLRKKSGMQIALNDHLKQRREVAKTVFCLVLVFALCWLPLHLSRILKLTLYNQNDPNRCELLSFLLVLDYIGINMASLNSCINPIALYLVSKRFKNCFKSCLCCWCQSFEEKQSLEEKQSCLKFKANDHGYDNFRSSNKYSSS
Sequence of Dopamine D4.4 (P21917 whole entry): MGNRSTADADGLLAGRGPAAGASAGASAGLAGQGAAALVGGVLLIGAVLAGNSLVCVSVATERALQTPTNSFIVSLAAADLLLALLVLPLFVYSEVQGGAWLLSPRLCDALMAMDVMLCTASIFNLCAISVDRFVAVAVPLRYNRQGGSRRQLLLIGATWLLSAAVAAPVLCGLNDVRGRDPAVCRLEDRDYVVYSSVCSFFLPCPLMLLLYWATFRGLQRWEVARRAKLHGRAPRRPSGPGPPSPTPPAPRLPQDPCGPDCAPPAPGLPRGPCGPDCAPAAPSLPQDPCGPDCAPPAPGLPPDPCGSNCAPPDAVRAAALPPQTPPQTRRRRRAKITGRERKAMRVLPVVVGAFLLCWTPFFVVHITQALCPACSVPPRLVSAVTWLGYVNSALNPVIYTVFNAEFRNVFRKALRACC
Sequence of Adrenergic α2A (P08913 whole entry): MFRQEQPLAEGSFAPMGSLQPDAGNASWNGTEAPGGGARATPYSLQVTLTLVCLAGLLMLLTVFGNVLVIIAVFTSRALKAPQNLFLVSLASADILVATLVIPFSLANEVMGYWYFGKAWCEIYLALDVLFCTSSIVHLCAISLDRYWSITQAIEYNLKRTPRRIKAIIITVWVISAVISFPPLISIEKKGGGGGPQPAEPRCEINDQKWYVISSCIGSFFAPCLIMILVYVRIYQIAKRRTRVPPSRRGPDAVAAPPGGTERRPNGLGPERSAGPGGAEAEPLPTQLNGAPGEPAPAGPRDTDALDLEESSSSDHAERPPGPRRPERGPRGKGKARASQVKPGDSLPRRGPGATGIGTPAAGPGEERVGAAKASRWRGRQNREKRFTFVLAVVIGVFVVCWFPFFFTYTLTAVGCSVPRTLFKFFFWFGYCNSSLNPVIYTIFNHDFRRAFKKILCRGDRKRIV
Sequence of Serotonin (5-Hydroxytryptamine) 5-HT1A (P08908 whole entry): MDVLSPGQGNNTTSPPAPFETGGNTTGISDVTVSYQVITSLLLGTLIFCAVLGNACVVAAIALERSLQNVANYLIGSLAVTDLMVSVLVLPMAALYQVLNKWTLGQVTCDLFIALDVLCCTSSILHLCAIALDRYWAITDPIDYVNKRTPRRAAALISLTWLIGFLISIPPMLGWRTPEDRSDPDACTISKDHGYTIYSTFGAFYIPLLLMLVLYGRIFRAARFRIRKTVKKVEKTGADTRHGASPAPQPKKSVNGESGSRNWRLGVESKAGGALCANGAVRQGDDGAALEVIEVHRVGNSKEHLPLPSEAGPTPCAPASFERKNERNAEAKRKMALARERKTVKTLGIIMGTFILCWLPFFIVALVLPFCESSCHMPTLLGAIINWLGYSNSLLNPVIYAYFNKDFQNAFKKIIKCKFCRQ
Sequence of Bradykinin B2 (P30411 whole entry): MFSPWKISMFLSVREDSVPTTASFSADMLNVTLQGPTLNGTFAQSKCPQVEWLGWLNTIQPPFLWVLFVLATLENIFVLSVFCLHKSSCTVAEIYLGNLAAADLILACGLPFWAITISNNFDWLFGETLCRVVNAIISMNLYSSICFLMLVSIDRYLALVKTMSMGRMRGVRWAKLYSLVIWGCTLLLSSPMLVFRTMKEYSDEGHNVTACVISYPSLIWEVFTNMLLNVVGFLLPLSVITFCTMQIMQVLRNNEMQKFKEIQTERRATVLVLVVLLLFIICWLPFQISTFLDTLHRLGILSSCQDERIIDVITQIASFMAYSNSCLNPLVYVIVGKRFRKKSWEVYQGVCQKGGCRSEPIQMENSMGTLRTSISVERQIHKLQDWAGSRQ
Sequence of Adrenergic α1D (P25100 whole entry): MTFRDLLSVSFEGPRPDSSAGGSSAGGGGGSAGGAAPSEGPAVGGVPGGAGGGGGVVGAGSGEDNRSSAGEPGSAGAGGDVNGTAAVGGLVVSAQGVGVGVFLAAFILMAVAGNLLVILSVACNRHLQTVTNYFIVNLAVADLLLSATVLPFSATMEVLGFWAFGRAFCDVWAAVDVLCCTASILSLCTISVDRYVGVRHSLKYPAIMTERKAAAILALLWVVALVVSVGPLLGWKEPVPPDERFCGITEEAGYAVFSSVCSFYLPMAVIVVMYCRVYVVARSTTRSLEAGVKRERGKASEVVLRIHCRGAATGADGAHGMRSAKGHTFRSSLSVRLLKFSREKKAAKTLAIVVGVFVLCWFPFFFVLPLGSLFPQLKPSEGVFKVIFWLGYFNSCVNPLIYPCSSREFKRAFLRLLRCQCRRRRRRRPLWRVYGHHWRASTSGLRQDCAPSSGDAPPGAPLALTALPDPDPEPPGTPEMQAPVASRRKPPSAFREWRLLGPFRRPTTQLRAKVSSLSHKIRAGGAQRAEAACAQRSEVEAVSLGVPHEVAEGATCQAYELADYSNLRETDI
Sequence of Glucocorticoid (P04150 whole entry): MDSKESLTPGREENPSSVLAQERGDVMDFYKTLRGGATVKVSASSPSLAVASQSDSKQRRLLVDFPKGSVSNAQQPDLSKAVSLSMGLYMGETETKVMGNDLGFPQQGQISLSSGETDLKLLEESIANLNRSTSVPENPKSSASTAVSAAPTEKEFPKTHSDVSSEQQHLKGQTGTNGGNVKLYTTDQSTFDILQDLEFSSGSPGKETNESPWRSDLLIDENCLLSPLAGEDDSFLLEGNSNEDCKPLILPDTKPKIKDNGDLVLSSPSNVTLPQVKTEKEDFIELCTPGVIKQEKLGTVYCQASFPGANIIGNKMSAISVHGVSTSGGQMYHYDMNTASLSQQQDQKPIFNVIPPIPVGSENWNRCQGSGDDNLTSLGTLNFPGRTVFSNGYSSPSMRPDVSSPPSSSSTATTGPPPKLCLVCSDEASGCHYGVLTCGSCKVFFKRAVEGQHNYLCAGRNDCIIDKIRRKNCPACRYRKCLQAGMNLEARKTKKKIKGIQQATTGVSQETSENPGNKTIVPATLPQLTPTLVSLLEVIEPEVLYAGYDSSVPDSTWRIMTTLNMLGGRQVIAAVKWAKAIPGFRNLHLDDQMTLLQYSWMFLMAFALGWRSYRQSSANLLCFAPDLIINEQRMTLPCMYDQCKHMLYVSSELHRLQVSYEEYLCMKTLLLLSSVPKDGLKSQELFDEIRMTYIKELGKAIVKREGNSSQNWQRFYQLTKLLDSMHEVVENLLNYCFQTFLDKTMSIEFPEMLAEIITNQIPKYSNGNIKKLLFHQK
Sequence of Dopamine D2S (P14416 1-414 isoform P14416-2): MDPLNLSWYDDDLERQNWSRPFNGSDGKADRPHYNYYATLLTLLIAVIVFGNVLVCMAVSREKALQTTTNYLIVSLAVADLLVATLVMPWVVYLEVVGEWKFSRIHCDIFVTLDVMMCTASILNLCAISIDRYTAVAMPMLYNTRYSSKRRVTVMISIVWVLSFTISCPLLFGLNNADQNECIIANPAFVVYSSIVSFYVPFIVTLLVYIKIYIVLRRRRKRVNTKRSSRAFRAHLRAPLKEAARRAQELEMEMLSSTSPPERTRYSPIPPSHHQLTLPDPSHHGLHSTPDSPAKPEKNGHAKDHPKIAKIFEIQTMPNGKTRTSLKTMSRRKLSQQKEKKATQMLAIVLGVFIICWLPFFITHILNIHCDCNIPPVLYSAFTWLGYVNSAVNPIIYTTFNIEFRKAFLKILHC

**Q.** For `Cc1cc(Oc2cnn(C)c2)cc(C(=O)Nc2ccc(F)cn2)n1` [22iA], which fraction unbound at 6 h, 5 µM [1] is on record?
**A.** 0.059

**Q.** And the inhibition at 10 µM [2]?
**A.** 3%

**Q.** What about the “% inh at 10 μM” value (Imidazoline I2, Central) of the same compound?
**A.** -1%

**Q.** And the IC50 (CYP 2C9)?
**A.** ≥ 30 µM

**Q.** What about the inhibition at 10 µM (Bradykinin B1) of the same compound?
**A.** 4%

**Q.** What about the inhibition at 10 µM (Endothelin ETB) of the same compound?
**A.** -13%

**Q.** What about the inhibition at 10 µM (Dopamine D4.4) of the same compound?
**A.** -9%

**Q.** What about the inhibition at 10 µM (Adrenergic α1D) of the same compound?
**A.** 3%

**Q.** What about the inhibition at 10 µM (Adrenergic α2A) of the same compound?
**A.** 8%

**Q.** What about the inhibition at 10 µM (Dopamine D3) of the same compound?
**A.** -6%

**Q.** What about the inhibition at 10 µM (GABAB1A) of the same compound?
**A.** 3%

**Q.** And the inhibition at 10 µM (Bradykinin B2)?
**A.** 1%

**Q.** And the inhibition at 10 µM (Histamine H2)?
**A.** -4%

**Q.** What about the inhibition at 10 µM (Histamine H1) of the same compound?
**A.** 24%

**Q.** What about the inhibition at 10 µM (Dopamine D2S) of the same compound?
**A.** -10%

**Q.** And the inhibition at 10 µM (Dopamine D1)?
**A.** -2%

**Q.** What about the inhibition at 10 µM (Adrenergic α1A) of the same compound?
**A.** 0%

**Q.** And the inhibition at 10 µM (Adrenergic β1)?
**A.** -4%

**Q.** What about the inhibition at 10 µM (Histamine H3) of the same compound?
**A.** 5%

**Q.** And the inhibition at 10 µM (Glucocorticoid)?
**A.** 10%

**Q.** And the inhibition at 10 µM (Tachykinin NK1)?
**A.** 15%

**Q.** And the inhibition at 10 µM (Opiate μ (OP3, MOP))?
**A.** 9%
